Measured values taken from publication PMC11352961, “Peptide dendrimers transfecting CRISPR/Cas9 plasmid DNA: optimization and mechanism” (RSC Chemical Biology, 2024).
Bridge positions count the residues as written; N and C are the ends. Square brackets hold non-standard residues; d marks the D form. Side chains are listed from the residue outwards. Peptide text beside a SMILES is read from it. I, II: the chains in the order shown.

Experiments:
HEK293 cells = assay: Cell viability by PrestoBlue assay after transfection, HEK cells; type: cell-based; conditions: 4 h
HeLa cells = assay: Cell viability by PrestoBlue assay after transfection, HeLa cells; type: cell-based; conditions: 4 h

SMILES	% viability HEK cells (HEK293 cells)	% viability HeLa cells (HeLa cells)
CC(C)C[C@@H](NC(=O)[C@@H](CC(C)C)NC(=O)[C@@H](CC(C)C)NC(=O)[C@@H](CC(C)C)NC(=O)[C@@H](CC(C)C)NC(=O)[C@@H](CCCCNC(=O)[C@@H](CC(C)C)NC(=O)[C@@H](CCCCN)NC(=O)[C@@H](CCCCNC(=O)[C@@H](CC(C)C)NC(=O)[C@@H](CCCCN)NC(=O)[C@@H](CCCCNC(=O)[C@@H](CC(C)C)NC(=O)[C@H](N)CCCCN)NC(=O)[C@@H](CC(C)C)NC(=O)[C@H](N)CCCCN)NC(=O)[C@@H](CC(C)C)NC(=O)[C@@H](CCCCN)NC(=O)[C@@H](CCCCNC(=O)[C@@H](CC(C)C)NC(=O)[C@H](N)CCCCN)NC(=O)[C@@H](CC(C)C)NC(=O)[C@H](N)CCCCN)NC(=O)[C@@H](CC(C)C)NC(=O)[C@@H](CCCCN)NC(=O)[C@@H](CCCCNC(=O)[C@@H](CC(C)C)NC(=O)[C@@H](CCCCN)NC(=O)[C@@H](CCCCNC(=O)[C@@H](CC(C)C)NC(=O)[C@H](N)CCCCN)NC(=O)[C@@H](CC(C)C)NC(=O)[C@H](N)CCCCN)NC(=O)[C@@H](CC(C)C)NC(=O)[C@@H](CCCCN)NC(=O)[C@@H](CCCCNC(=O)[C@@H](CC(C)C)NC(=O)[C@H](N)CCCCN)NC(=O)[C@@H](CC(C)C)NC(=O)[C@H](N)CCCCN)C(N)=O [Z28] (I: H-[dK][dL][dK]([dL-dK])[dK][dL][dK][dK][dL][dK][dL][dL][dL][dL][dL]-NH2 / II: H-[dK][dL][dK]([dL-dK])[dK][dL][dK][dK][dL] / III: H-[dK][dL][dK]([dL-dK])[dK][dL] / IV: H-[dK][dL][dK]([dL-dK])[dK][dL]; amide I:6-IV:C, I:9-II:C, II:6-III:C)	103 ± 0.2%	101 ± 7%
CC(C)C[C@H](NC(=O)[C@H](CCCCN)NC(=O)[C@H](CCCCNC(=O)[C@H](CC(C)C)NC(=O)[C@H](CCCCN)NC(=O)[C@H](CCCCNC(=O)[C@H](CC(C)C)NC(=O)[C@@H](N)CCCCN)NC(=O)[C@H](CC(C)C)NC(=O)[C@@H](N)CCCCN)NC(=O)[C@H](CC(C)C)NC(=O)[C@H](CCCCN)NC(=O)[C@H](CCCCNC(=O)[C@H](CC(C)C)NC(=O)[C@@H](N)CCCCN)NC(=O)[C@H](CC(C)C)NC(=O)[C@@H](N)CCCCN)C(=O)NCCCC[C@H](NC(=O)[C@H](CC(C)C)NC(=O)[C@H](CCCCN)NC(=O)[C@H](CCCCNC(=O)[C@H](CC(C)C)NC(=O)[C@H](CCCCN)NC(=O)[C@H](CCCCNC(=O)[C@H](CC(C)C)NC(=O)[C@@H](N)CCCCN)NC(=O)[C@H](CC(C)C)NC(=O)[C@@H](N)CCCCN)NC(=O)[C@H](CC(C)C)NC(=O)[C@H](CCCCN)NC(=O)[C@H](CCCCNC(=O)[C@H](CC(C)C)NC(=O)[C@@H](N)CCCCN)NC(=O)[C@H](CC(C)C)NC(=O)[C@@H](N)CCCCN)C(=O)NCC(=O)N[C@@H](CO)C(=O)N[C@@H](CS)C(N)=O [G123KL, reference compound] (I: H-KLK([Leu-Lys])KLKKLKGSC-NH2 / II: H-KLK([Leu-Lys])KLKKL / III: H-KLK([Leu-Lys])KL / IV: H-KLK([Leu-Lys])KL; amide I:6-IV:C, I:9-II:C, II:6-III:C)	52 ± 9%	
